# Values quoted from earlier work, collected in publication PMC6318274, “Lattice engineering enables definition of molecular features allowing for potent small-molecule inhibition of HIV-1 entry” (Nature Communications, 2019).
# Where two headings read alike, the source gives them in different places.
# System: HIV-1 Env-pseudoviruses (208-strain panel)
# Settings: cited from earlier work
smiles,measurement,setting,value
COc1cnc(-n2cnc(C)n2)c2[nH]cc(C(=O)C(=O)N3CCN(C(=O)c4ccccc4)CC3)c12 [BMS-626529],IC50,"45_01dG5, clade B, read-out: IC50",0.4 nM
same,IC50,"0077.v1.c16, clade C, read-out: IC50",2 nM
same,IC50,"89.6.DG, clade B, read-out: IC50",2 nM
same,IC50,"96ZM651.02, clade C, read-out: IC50",4 nM
same,IC50,"208-strain panel, read-out: Geometric mean IC50",15.9 nM
same,IC50,"208-strain panel, read-out: Median IC50",9 nM
same,IC50,"235-47, clade AG, read-out: IC50",1 nM
same,IC50,"242-14, clade AG, read-out: IC50",23 nM
same,IC50,"246-F3.C10.2, clade AC, read-out: IC50",200 nM
same,IC50,"247-23, clade D, read-out: IC50",11 nM
same,IC50,"0260.v5.c36, clade A, read-out: IC50",29 nM
same,IC50,"263-8, clade AG, read-out: IC50",2 nM
same,IC50,"269-12, clade AG, read-out: IC50",15100 nM
same,IC50,"271-11, clade AG, read-out: IC50",> 20000 nM
same,IC50,"286.36, clade C, read-out: IC50",1 nM
same,IC50,"288.38, clade C, read-out: IC50",3 nM
same,IC50,"0330.v4.c3, clade A, read-out: IC50",98 nM
same,IC50,"398-F1.F6.20, clade A, read-out: IC50",372 nM
same,IC50,"426c, clade C, read-out: IC50",30 nM
same,IC50,"0439.v5.c1, clade A, read-out: IC50",9 nM
same,IC50,"0815.v3.c3, clade ACD, read-out: IC50",2 nM
same,IC50,"00836-2.5, clade C, read-out: IC50",> 20000 nM
same,IC50,"0921.v2.c14, clade C, read-out: IC50",0.9 nM
same,IC50,"928-28, clade AG, read-out: IC50",2080 nM
same,IC50,"001428-2.42, clade C, read-out: IC50",49 nM
same,IC50,"3016.v5.c45, clade D, read-out: IC50",0.5 nM
same,IC50,"3168.v4.c10, clade C, read-out: IC50",1 nM
same,IC50,"3301.v1.c24, clade AC, read-out: IC50",15 nM
same,IC50,"3326.v4.c3, clade CD, read-out: IC50",0.3 nM
same,IC50,"3337.v2.c6, clade CD, read-out: IC50",1 nM
same,IC50,"3365.v2.c20, clade A, read-out: IC50",1920 nM
same,IC50,"3415.v1.c1, clade A, read-out: IC50",5 nM
same,IC50,"3468.v1.c12, clade AD, read-out: IC50",7 nM
same,IC50,"3589.v1.c4, clade AC, read-out: IC50",1 nM
same,IC50,"3637.v5.c3, clade C, read-out: IC50",1 nM
same,IC50,"3718.v3.c11, clade A, read-out: IC50",10 nM
same,IC50,"3817.v2.c59, clade CD, read-out: IC50",48 nM
same,IC50,"3873.v1.c24, clade C, read-out: IC50",0.6 nM
same,IC50,"3988.25, clade B, read-out: IC50",1 nM
same,IC50,"5768.04, clade B, read-out: IC50",3 nM
same,IC50,"6095.v1.c10, clade ACD, read-out: IC50",1 nM
same,IC50,"6101.10, clade B, read-out: IC50",1 nM
same,IC50,"6322.v4.c1, clade C, read-out: IC50",91 nM
same,IC50,"6405.v4.c34, clade D, read-out: IC50",2470 nM
same,IC50,"6471.v1.c16, clade C, read-out: IC50",2 nM
same,IC50,"6535.3, clade B, read-out: IC50",0.3 nM
same,IC50,"6540.v4.c1, clade AC, read-out: IC50",41 nM
same,IC50,"6545.v4.c1, clade AC, read-out: IC50",32 nM
same,IC50,"6631.v3.c10, clade C, read-out: IC50",3 nM
same,IC50,"6644.v2.c33, clade C, read-out: IC50",71 nM
same,IC50,"6785.v5.c14, clade C, read-out: IC50",292 nM
same,IC50,"6838.v1.c35, clade C, read-out: IC50",19 nM
same,IC50,"7165.18, clade B, read-out: IC50",29 nM
same,IC50,"0013095-2.11, clade C, read-out: IC50",5 nM
same,IC50,"16055-2.3, clade C, read-out: IC50",3 nM
same,IC50,"16845-2.22, clade C, read-out: IC50",1 nM
same,IC50,"16936-2.21, clade C, read-out: IC50",6 nM
same,IC50,"25710-2.43, clade C, read-out: IC50",2 nM
same,IC50,"25711-2.4, clade C, read-out: IC50",13 nM
same,IC50,"25925-2.22, clade C, read-out: IC50",2 nM
same,IC50,"26191-2.48, clade C, read-out: IC50",2 nM
same,IC50,"57128.vrc15, clade D, read-out: IC50",6 nM
same,IC50,"191821.E6.1, clade D, read-out: IC50",0.8 nM
same,IC50,"231965.c01, clade D, read-out: IC50",1 nM
same,IC50,"620345.c1, clade AE, read-out: IC50",4130 nM
same,IC50,"A07412M1.vrc12, clade D, read-out: IC50",8 nM
same,IC50,"AC10.29, clade B, read-out: IC50",3 nM
same,IC50,"ADA.DG, clade B, read-out: IC50",3 nM
same,IC50,"BB201.B42, clade A, read-out: IC50",242 nM
same,IC50,"BB539.2B13, clade A, read-out: IC50",7 nM
same,IC50,"BG1168.01, clade B, read-out: IC50",13 nM
same,IC50,"BI369.9A, clade A, read-out: IC50",6 nM
same,IC50,"BJOX002000.03.2, clade BC, read-out: IC50",5 nM
same,IC50,"BJOX009000.02.4, clade AE, read-out: IC50",5130 nM
same,IC50,"BJOX010000.06.2, clade AE, read-out: IC50",> 20000 nM
same,IC50,"BJOX025000.01.1, clade AE, read-out: IC50",> 20000 nM
same,IC50,"BJOX028000.10.3, clade AE, read-out: IC50",> 20000 nM
same,IC50,"BL01.DG, clade B, read-out: IC50",> 20000 nM
same,IC50,"BR07.DG, clade B, read-out: IC50",786 nM
same,IC50,"BR025.9, clade C, read-out: IC50",> 20000 nM
same,IC50,"BS208.B1, clade A, read-out: IC50",17 nM
same,IC50,"BX08.16, clade B, read-out: IC50",2 nM
same,IC50,"BaL.26, clade B, read-out: IC50",0.8 nM
same,IC50,"Bal.01, clade B, read-out: IC50",1 nM
same,IC50,"C1080.c3, clade AE, read-out: IC50",> 20000 nM
same,IC50,"C2101.c1, clade AE, read-out: IC50",> 20000 nM
same,IC50,"C3347.c11, clade AE, read-out: IC50",18100 nM
same,IC50,"C4118.09, clade AE, read-out: IC50",4040 nM
same,IC50,"CAAN.A2, clade B, read-out: IC50",1 nM
same,IC50,"CAP45.G3, clade C, read-out: IC50",32 nM
same,IC50,"CAP210.E8, clade C, read-out: IC50",77 nM
same,IC50,"CAP244.D3, clade C, read-out: IC50",7 nM
same,IC50,"CE703010217.B6, clade C, read-out: IC50",2 nM
same,IC50,"CH038.12, clade BC, read-out: IC50",329 nM
same,IC50,"CH070.1, clade BC, read-out: IC50",23 nM
same,IC50,"CH117.4, clade BC, read-out: IC50",26 nM
same,IC50,"CH119.10, clade BC, read-out: IC50",4 nM
same,IC50,"CH181.12, clade BC, read-out: IC50",1 nM
same,IC50,"CM244.ec1, clade AE, read-out: IC50",> 20000 nM
same,IC50,"CNE3, clade AE, read-out: IC50",8520 nM
same,IC50,"CNE4, clade B, read-out: IC50",> 20000 nM
same,IC50,"CNE5, clade AE, read-out: IC50",12700 nM
same,IC50,"CNE7, clade BC, read-out: IC50",13 nM
same,IC50,"CNE8, clade AE, read-out: IC50",> 20000 nM
same,IC50,"CNE10, clade B, read-out: IC50",0.5 nM
same,IC50,"CNE12, clade B, read-out: IC50",1 nM
same,IC50,"CNE14, clade B, read-out: IC50",230 nM
same,IC50,"CNE15, clade BC, read-out: IC50",0.9 nM
same,IC50,"CNE19, clade BC, read-out: IC50",2 nM
